# In EP0127076A2, “Histargin, a microbiological process for its preparation, its use as a medicament, and the strain Streptomyces roseoviridis having the ability to produce histargin” (MICROBIAL CHEMISTRY RESEARCH FOUNDATION, priority 1983, dated 1984):
# What was measured:
# [1] = test system: Wistar rats; assay: potentiation of morphine-induced analgesia, tail-flick technique in morphine-unresponsive rats; type: in vivo
# [2] = molecular target: T1, carboxypeptidase B (Sus scrofa, UniProt P09955); assay: anti-carboxypeptidase B activity (hippuryl-L-lysine substrate, cyanuric chloride colour reaction); type: biochemical; settings: purified carboxypeptidase B from the pancreas of pigs, 37°C, pH 8.0; read-out: 50 % inhibition (IC50) against carboxypeptidase B (converted)
# T1 construct: purified carboxypeptidase B (a product of Boehringer-Mannheim obtained from the pancreas of pigs); purchased Boehringer-Mannheim; host or cells: pig pancreas
# T1 sequence (P09955 111-416): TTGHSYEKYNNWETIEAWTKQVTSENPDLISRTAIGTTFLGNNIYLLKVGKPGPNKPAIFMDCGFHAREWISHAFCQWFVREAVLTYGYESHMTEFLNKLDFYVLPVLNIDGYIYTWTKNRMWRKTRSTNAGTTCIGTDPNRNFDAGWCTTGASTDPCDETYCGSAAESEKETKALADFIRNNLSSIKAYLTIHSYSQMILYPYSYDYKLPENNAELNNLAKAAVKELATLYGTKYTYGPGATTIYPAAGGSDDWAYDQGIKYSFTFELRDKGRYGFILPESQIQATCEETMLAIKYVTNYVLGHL
# Protocol: Histargin in the cultivation and purification steps was traced by measuring anti-carboxypeptidase B activity. Anti-carboxypeptidase B activity was measured in the following way according to an improved method based on the angiotensin I transferase activity determination method described in M.Hayakari et al., "Analytical Biochemistry," 84, 361-369, 1978.
# A mixed solution was prepared by adding 0.25 ml of 0.05M Tris-hydrochloric acid buffer solution (pH 8.0) and 0.15 ml of a solution containing a histargin sample to 0.05 ml of 0.05M hippuryl-L-lysine (a product of Peptide Institute). The mixed solution was heated for 3 minutes at 37°C, and 0.05 ml of an aqueous solution of 1 µg/ml of purified carboxypeptidase B (a product of Boehringer-Mannheim obtained from the pancreas of pigs) was added to the mixed solution. To the resulting mixture was added 0.03 ml of 1N sodium hydroxide to terminate the reaction. Fifteen minutes later, 2 ml of a 1 % methyl cellosolve solution of cyanuric chloride was added for a color reaction. After the mixture was allowed to stand for 15 minutes at room temperature, the absorbance (a) at 382 nm was measured. Separately, there was measured the blank absorbance (b) of the same reaction mixture except that the histargin sample was not contained. The percent inhibition against carboxypeptidase B was calculated from the equation [(b - a)/b] x 100.
# [3] = test system: Slc-CDF1 mice; assay: cell-mediated immunity: delayed-type hypersensitivity (D.T.H.) to sheep red blood cell, footpad swelling; type: in vivo; settings: normal mice, 5, 0.5, 0,05 and 0.005 mg/kg once intraperitoneally; statement on Table 1 (image)
# Protocol: This effect was investigated using as its index the degree of delayed- type hypersensitivity (D.T.H.) to sheep red blood cell (SRBC) injectd intravenously as an antigen (see J. Exp. Med. 139, 1529-1539, 1974).
# A suspension of 10^5 SRBCs in 0.05 ml of physiological saline solution was injected intravenously into Slc-CDF1 mice (female, 9 weeks old). Simultaneously, histargin monohydrate in doses of 5, 0.5, 0,05 and 0.005 mg/kg was administerd once intraperitoneally as a solution dissolved in physiological saline solution.
# Four days after admnistration, a suspension of 10^8 SRBCs in 0.05 ml of physiological saline solution was injected subcutaneously to the footpads to induce D.T.H. Twenty-four hours after the subcutaneous injection, footpad swellings (increases in the foot thicknesses) were measured with a caliper. The mean footpad swelling in control animals receiving SRBCs and physiological saline solution but without the test compound was designated as C, which was set at 100 %• The mean footpad swelling in animals treated with SRBCs, physiological saline solution, and the test compound was designated as T. The ratio of T to C was calculated to evaluate the effect of the test compound to potentiate cell-mediated immunity.
# [4] = test system: enkephalinase B; assay: enkephalinase B inhibition (tritiated methionine enkephalin hydrolysis); type: biochemical, crab-eating monkeys; settings: concentration of 100 µg/ml, pH 7.0
# Protocol: Enkephalinase B was obtained by homogenizing the brains of crab-eating monkeys, fractionating the homogenate, and purifying soluble fractions in accordance with the method of Hazato et al. (Biochemical and Biophysical Research Communications, Vol. 105, No. 2, pp. 470-475, 1982). The inhibitory activity of histargin against enkephalinase B was measured by the method of Hasato et al. described in the same reference.
# Ten µmol of methionine enkephalin (Tyr-Gly-Gly-Phe-Met) having the terminal tyrosine partially tritiated was used as a substrate. This substrate was hydrolyzed with enkephalinase B in 100 µl of […] Tris-hydrochloric acid buffer solution (pH 7.0). The segment, Tyr-Gly, resulting from hydrolysis was separated using a column of Porapak Q (a product of Whatman), and determined quantitatively based on its radioactivity. The results obtained when the above reaction was carried out in the presence of histargin were compared with those obtained when the reaction was performed in the absence of histargin. Based on the comparison, the enkephalinase B-inhibiting activity of histragin was evaluated.
smiles,measurement,setting,value
CC(C)C[C@H](NC(=O)[C@@H](O)[C@H](N)Cc1ccccc1)C(=O)O [Bestatin],Potentiation of morphine-induced analgesia (%),"[1]; 250 mg/kg, for comparison, Wistar rats",19.9%
CN1CC[C@]23c4c5ccc(O)c4O[C@H]2[C@@H](O)C=C[C@H]3[C@H]1C5 [Morphine],Potentiation of morphine-induced analgesia (%),[1]; morphine only 0.5 mg/kg (control group),0%
same,Potentiation of morphine-induced analgesia (%),[1]; morphine only 2 mg/kg,28.4%
same,Potentiation of morphine-induced analgesia (%),[1]; morphine only 3 mg/kg,35.1%
"N=C(N)NCCCC(NCCNC(Cc1cnc[nH]1)C(=O)O)C(=O)O (centres unmarked) [histargin monohydrate, histargin]",IC50,[2],33.8 µM
same,"effect on cell-mediated immunity (D.T.H. footpad swelling, T/C)",[3],potentiates cell-mediated immunity
same,Potentiation of morphine-induced analgesia (%),"[1]; 100 mg/kg intraperitoneally + 0.5 mg/kg morphine, morphine-unresponsive Wistar rats",33.8%
same,inhibition against enkephalinase B,[4],92%
